Reference: patent US4851411A, “5-monoaryl as.-triazin-3-ones substituted in 2-position, and their use as medicaments” (Pierre Fabre Medicament, priority 1986, dated 1989)

experiment: Solubility; type: physicochemical; details: alcohols, in the hot

solubility in alcohols in the hot	Structure (SMILES)
soluble	CCOc1ccc(-c2cnn(CC(C)=O)c(=O)n2)cc1 [Example 24, 2-acetonyl 3-oxo 5-p-ethoxyphenyl as.-triazine]
Soluble	Cc1ccc(-c2cnn(CCCCN3CCN(c4cccc(Cl)c4)CC3)c(=O)n2)cc1 [Example 13, 2-N-δ butyl (m-chlorophenyl piperazine) 3-oxo 5-p-methylphenyl as.-triazine]
Soluble	COc1ccc(-c2cnn(C(C(=O)c3ccccc3)c3ccccc3)c(=O)n2)cc1 (stereo not shown) [Example 34, 2-N-desyl 3-oxo 5-p-methoxyphenyl as.-triazine]

same assay, conditions: aqueous dilute acids, in the hot

solubility in aqueous dilute acids in the hot	Structure (SMILES)
Soluble	Cc1ccc(-c2cnn(CCCCN3CCN(c4cccc(Cl)c4)CC3)c(=O)n2)cc1 [Example 13, 2-N-δ butyl (m-chlorophenyl piperazine) 3-oxo 5-p-methylphenyl as.-triazine]

same assay, conditions: benzene

solubility in benzene	Structure (SMILES)
poorly soluble	COc1ccc(-c2cnn(CC(=O)C(C)C)c(=O)n2)cc1 [Example 5, 2-(3'-methyl 2'-one butyl) 3-oxo 5-p-methoxyphenyl as.-triazine]
insoluble	COc1ccc(-c2cnn(CCO)c(=O)n2)cc1 [Example 31, 2-ethanol 3-oxo 5-p-methoxyphenyl as.-triazine]

same assay, conditions: chlorinated solvents

solubility in chlorinated solvents	Structure (SMILES)
Soluble	CCOc1ccc(-c2cnn(CC(C)=O)c(=O)n2)cc1 [Example 24, 2-acetonyl 3-oxo 5-p-ethoxyphenyl as.-triazine]
Soluble	CC(=O)Cn1ncc(-c2cccs2)nc1=O [Example 26, 2-acetonyl 3-oxo 5-γ-thienyl as.-triazine]

same assay, conditions: chloroform

Structure (SMILES)	solubility in chloroform
CC(=O)Cn1ncc(-c2ccccc2)nc1=O [Example 7, 2-acetonyl 3-oxo 5-phenyl as.-triazine]	Soluble
COc1ccc(-c2cnn(CCO)c(=O)n2)cc1 [Example 31, 2-ethanol 3-oxo 5-p-methoxyphenyl as.-triazine]	poorly soluble
CC(=O)Cn1ncc(-c2ccc(C)cc2)nc1=O [Example 6, 2-acetonyl 3-oxo 5-p-methylphenyl as.-triazine]	Soluble
Cc1ccc(-c2cnn(CCCCN3CCN(c4cccc(Cl)c4)CC3)c(=O)n2)cc1 [Example 13, 2-N-δ butyl (m-chlorophenyl piperazine) 3-oxo 5-p-methylphenyl as.-triazine]	Soluble
COc1ccc(-c2cnn(C(C(=O)c3ccccc3)c3ccccc3)c(=O)n2)cc1 (stereo not shown) [Example 34, 2-N-desyl 3-oxo 5-p-methoxyphenyl as.-triazine]	rather soluble

More lines, now with the values ahead:

solubility in chloroform	Structure (SMILES)
Soluble	COc1ccc(-c2cnn(CC(=O)C(C)C)c(=O)n2)cc1 [Example 5, 2-(3'-methyl 2'-one butyl) 3-oxo 5-p-methoxyphenyl as.-triazine]
Soluble	COc1ccc(-c2cnn(CC(C)=O)c(=O)n2)c(OC)c1 [Example 25, 2-acetonyl 3-oxo 5-(2',4'-dimethoxy)phenyl as.-triazine]
Soluble	COc1ccc(-c2cnn(CCCC(=O)c3ccc(F)cc3)c(=O)n2)cc1 [Example 33, 2-N-(γp-fluorobutyrophenone) 3-oxo 5-p-methoxyphenyl as.-triazine]
Soluble	COc1ccc(-c2cnn(CCCCCN3CCN(c4cccc(Cl)c4)CC3)c(=O)n2)cc1 [Example 15, 2-N (ε-pentyl m-chlorophenyl piperazine) 3-oxo 5-p-methoxyphenyl as.-triazine]

same assay, conditions: ether

Structure (SMILES)	solubility in ether
CC(=O)Cn1ncc(-c2ccccc2)nc1=O [Example 7, 2-acetonyl 3-oxo 5-phenyl as.-triazine]	insoluble
COc1ccc(-c2cnn(CCO)c(=O)n2)cc1 [Example 31, 2-ethanol 3-oxo 5-p-methoxyphenyl as.-triazine]	insoluble
CC(=O)Cn1ncc(-c2ccc(C)cc2)nc1=O [Example 6, 2-acetonyl 3-oxo 5-p-methylphenyl as.-triazine]	insoluble
CCOc1ccc(-c2cnn(CC(C)=O)c(=O)n2)cc1 [Example 24, 2-acetonyl 3-oxo 5-p-ethoxyphenyl as.-triazine]	insoluble
Cc1ccc(-c2cnn(CCCCN3CCN(c4cccc(Cl)c4)CC3)c(=O)n2)cc1 [Example 13, 2-N-δ butyl (m-chlorophenyl piperazine) 3-oxo 5-p-methylphenyl as.-triazine]	insoluble
COc1ccc(-c2cnn(C(C(=O)c3ccccc3)c3ccccc3)c(=O)n2)cc1 (stereo not shown) [Example 34, 2-N-desyl 3-oxo 5-p-methoxyphenyl as.-triazine]	poorly soluble

Now from value to compound:

solubility in ether	Structure (SMILES)
poorly soluble	COc1ccc(-c2cnn(CC(=O)C(C)C)c(=O)n2)cc1 [Example 5, 2-(3'-methyl 2'-one butyl) 3-oxo 5-p-methoxyphenyl as.-triazine]
insoluble	COc1ccc(-c2cnn(CC(C)=O)c(=O)n2)c(OC)c1 [Example 25, 2-acetonyl 3-oxo 5-(2',4'-dimethoxy)phenyl as.-triazine]
insoluble	COc1ccc(-c2cnn(CCCCCN3CCN(c4cccc(Cl)c4)CC3)c(=O)n2)cc1 [Example 15, 2-N (ε-pentyl m-chlorophenyl piperazine) 3-oxo 5-p-methoxyphenyl as.-triazine]
insoluble	CC(=O)Cn1ncc(-c2cccs2)nc1=O [Example 26, 2-acetonyl 3-oxo 5-γ-thienyl as.-triazine]

same assay, conditions: methylene chloride

Structure (SMILES)	solubility in methylene chloride
CC(=O)Cn1ncc(-c2ccccc2)nc1=O [Example 7, 2-acetonyl 3-oxo 5-phenyl as.-triazine]	Soluble
COc1ccc(-c2cnn(CCO)c(=O)n2)cc1 [Example 31, 2-ethanol 3-oxo 5-p-methoxyphenyl as.-triazine]	rather soluble
CC(=O)Cn1ncc(-c2ccc(C)cc2)nc1=O [Example 6, 2-acetonyl 3-oxo 5-p-methylphenyl as.-triazine]	Soluble
Cc1ccc(-c2cnn(CCCCN3CCN(c4cccc(Cl)c4)CC3)c(=O)n2)cc1 [Example 13, 2-N-δ butyl (m-chlorophenyl piperazine) 3-oxo 5-p-methylphenyl as.-triazine]	Soluble

The remaining lines, values ahead:

solubility in methylene chloride	Structure (SMILES)
Soluble	COc1ccc(-c2cnn(CC(=O)C(C)C)c(=O)n2)cc1 [Example 5, 2-(3'-methyl 2'-one butyl) 3-oxo 5-p-methoxyphenyl as.-triazine]
Soluble	COc1ccc(-c2cnn(CC(C)=O)c(=O)n2)c(OC)c1 [Example 25, 2-acetonyl 3-oxo 5-(2',4'-dimethoxy)phenyl as.-triazine]
Soluble	COc1ccc(-c2cnn(CCCC(=O)c3ccc(F)cc3)c(=O)n2)cc1 [Example 33, 2-N-(γp-fluorobutyrophenone) 3-oxo 5-p-methoxyphenyl as.-triazine]
Soluble	COc1ccc(-c2cnn(CCCCCN3CCN(c4cccc(Cl)c4)CC3)c(=O)n2)cc1 [Example 15, 2-N (ε-pentyl m-chlorophenyl piperazine) 3-oxo 5-p-methoxyphenyl as.-triazine]

same assay, conditions: water

Structure (SMILES)	solubility in water
CC(=O)Cn1ncc(-c2ccccc2)nc1=O [Example 7, 2-acetonyl 3-oxo 5-phenyl as.-triazine]	insoluble
CC(=O)Cn1ncc(-c2ccc(C)cc2)nc1=O [Example 6, 2-acetonyl 3-oxo 5-p-methylphenyl as.-triazine]	insoluble
CCOc1ccc(-c2cnn(CC(C)=O)c(=O)n2)cc1 [Example 24, 2-acetonyl 3-oxo 5-p-ethoxyphenyl as.-triazine]	insoluble
Cc1ccc(-c2cnn(CCCCN3CCN(c4cccc(Cl)c4)CC3)c(=O)n2)cc1 [Example 13, 2-N-δ butyl (m-chlorophenyl piperazine) 3-oxo 5-p-methylphenyl as.-triazine]	insoluble
COc1ccc(-c2cnn(C(C(=O)c3ccccc3)c3ccccc3)c(=O)n2)cc1 (stereo not shown) [Example 34, 2-N-desyl 3-oxo 5-p-methoxyphenyl as.-triazine]	insoluble

Results, then the compound that gave them:

solubility in water	Structure (SMILES)
Insoluble	COc1ccc(-c2cnn(CC(=O)C(C)C)c(=O)n2)cc1 [Example 5, 2-(3'-methyl 2'-one butyl) 3-oxo 5-p-methoxyphenyl as.-triazine]
insoluble	COc1ccc(-c2cnn(CC(C)=O)c(=O)n2)c(OC)c1 [Example 25, 2-acetonyl 3-oxo 5-(2',4'-dimethoxy)phenyl as.-triazine]
insoluble	COc1ccc(-c2cnn(CCCC(=O)c3ccc(F)cc3)c(=O)n2)cc1 [Example 33, 2-N-(γp-fluorobutyrophenone) 3-oxo 5-p-methoxyphenyl as.-triazine]
insoluble	COc1ccc(-c2cnn(CCCCCN3CCN(c4cccc(Cl)c4)CC3)c(=O)n2)cc1 [Example 15, 2-N (ε-pentyl m-chlorophenyl piperazine) 3-oxo 5-p-methoxyphenyl as.-triazine]
insoluble	CC(=O)Cn1ncc(-c2cccs2)nc1=O [Example 26, 2-acetonyl 3-oxo 5-γ-thienyl as.-triazine]

same assay, conditions: water, in the hot

solubility in water in the hot	Structure (SMILES)
Soluble	COc1ccc(-c2cnn(CCO)c(=O)n2)cc1 [Example 31, 2-ethanol 3-oxo 5-p-methoxyphenyl as.-triazine]
